Data published in article PMC8584424, “Synthesis of Novel 2-Thiouracil-5-Sulfonamide Derivatives as Potent Inducers of Cell Cycle Arrest and CDK2A Inhibition Supported by Molecular Docking” (International Journal of Molecular Sciences, 2021).

Columns and labels:
[1] = system: A-2780 (ovarian) cancer cells; test: In vitro cytotoxicity assessment (MTT), A-2780; assay type: cell-based, human; settings: for IC50: Homo sapiens, A2780, 48 h, MTT, mean of three experiments ± SD, NA: not active; for SI (selectivity index) A-2780: IC50 in WI38 normal cells / IC50 in A-2780
Excerpt: (§1) Four cancer cell lines were used in this study viz ovarian (A-2780), colon (HT-29), breast (MCF-7), and liver (HepG2) cancer cells. They were provided by the National Institute of Cancer, Cairo University (Cairo, Egypt). The selection of those cancer cells was encouraged by the stated anticancer activity of a number 5-Fluorouracil hybrids against the mentioned cancer cells and based on the reported cytotoxic activity of a large range of bioactive cores containing sulfonamide moiety.
(§2) Cells were seeded in 96 well plates at a density of 2 × 10^4 and incubated to allow the attachment for 24 h. Then the cells were treated at different concentrations (2.5–10 μM) with 5-FU as a positive control or the synthesized compounds for 48h. 0.1% DMSO was used as a negative control. Afterward, cells were washed using PBS and the viability of cells was evaluated utilizing in vitro toxicology assay kit, MTT Based (Stock No. TOX-1, Sigma-Aldrich, Saint Louis, Missouri, USA), per the manufacturer’s instructions. The plates were read at 570 nm. IC50 was calculated using a sigmoidal dose-response curve (GraphPad Prism version 5 for Windows (GraphPad Inc., USA)). Data are presented as the mean of the three individual experiments. The degree of selectivity of the active target compounds relative to WI38 normal cell lines is expressed as previously described. Selectivity index (SI) = IC50 of a pure compound in a normal cell line/IC50 of the same pure compound in a cancerous cell line.

[2] = system: HT-29 (colon) cancer cells; test: In vitro cytotoxicity assessment (MTT), HT-29; assay type: cell-based, human; settings: for IC50: Homo sapiens, HT-29, 48 h, MTT, mean of three experiments ± SD, NA: not active; for SI (selectivity index) HT-29: IC50 in WI38 normal cells / IC50 in HT-29
Excerpt: as §1, §2

[3] = system: MCF-7 (breast) cancer cells; test: In vitro cytotoxicity assessment (MTT), MCF-7; assay type: cell-based, human; settings: for IC50: Homo sapiens, MCF7, 48 h, MTT, mean of three experiments ± SD, NA: not active; for SI (selectivity index) MCF-7: IC50 in WI38 normal cells / IC50 in MCF-7
Excerpt: as §1, §2

[4] = system: HepG2 (liver) cancer cells; test: In vitro cytotoxicity assessment (MTT), HepG2; assay type: cell-based, human; settings: for IC50: Homo sapiens, HepG2, 48 h, MTT, mean of three experiments ± SD, NA: not active; for SI (selectivity index) HepG2: IC50 in WI38 normal cells / IC50 in HepG2
Excerpt: as §1, §2

WI38 normal cells = test: In vitro cytotoxicity assessment (MTT), normal cells; assay type: cell-based; settings: WI-38; normal human cell line WI38, MTT
Protocol: as §2, with “Then the cells were treated at different concentrations (2.5–10 μM) with 5-FU as a positive control or the synthesized compounds for 48h.” left out

CDK2/CyclinA2 = target: T1, CDK2/CyclinA2 (Homo sapiens, UniProt P24941); test: In vitro inhibitory screening of CDK2 (CDK2 Assay kit, Kinase-Glo MAX); assay type: biochemical; settings: CDK2/CyclinA2, 30 °C 45 min; mean of three experiments ± SD; read-out: CDK2 Protein Kinase (IC50 in µM)
T1 construct: purchased #79599
Protocol: To measure CDK2/CyclinA2 activity, the CDK2 Assay kit #79599 was used for screening and profiling applications, together with Kinase-Glo® MAX (Promega#V6071) as a detection reagent. […] Briefly, 25 μL of the master mixture containing 6 μL Kinase assay buffer + 1 μL ATP + 5 μL CDK substrate peptide + 13 μL distilled water were added to each well. Later, 5 µL of inhibitor buffer only or diluted compound were added to the blank or test inhibitor wells, respectively. Then, 20μL of Kinase assay buffer was added to blank wells. The reaction was started by the addition of 20 μL of CDK2/CyclinA2 enzyme to the wells of the test inhibitor. The final volume was 50 µL in all of the reactions. Incubation was at 30 °C for 45 min for all the enzymatic reactions. Finally, to each well, 50 μL of Kinase-Glo MAX reagent was added. The plate was incubated for 15 min at room temperature then, the luminescence signal was measured using a Bio Tek Synergy 2 microplate reader. Experiments were performed in triplicates.

Structure (SMILES) | melting point | IC50 (CDK2/CyclinA2) | IC50 [1] | SI (selectivity index) A-2780 [1] | IC50 [2] | SI (selectivity index) HT-29 [2] | IC50 [3] | SI (selectivity index) MCF-7 [3] | IC50 [4] | SI (selectivity index) HepG2 [4] | IC50 (WI38 normal cells)
Cc1ccc(NS(=O)(=O)c2c(C)[nH]c(=S)[nH]c2=O)cc1 [Compound 6c, 6-Methyl-4-Oxo-2-Thioxo-N-(P-Tolyl)-1,2,3,4-Tetrahydropyrimidine-5-Sulfonamide] | 313 to 315 °C | – | 14 ± 1.05 µM | 6.02 | 5.46 ± 1.66 µM | 15.46 | 6.36 ± 1.2 µM | 13.27 | 6.71 ± 0.99 µM | 12.58 | 84.4 ± 1.7 µM
Cc1[nH]c(=S)[nH]c(=O)c1S(=O)(=O)Nc1ccc([N+](=O)[O-])cc1 [Compound 6f, 6-Methyl-N-(4-Nitrophenyl)-4-Oxo-2-Thioxo-1,2,3,4-Tetrahydropyrimidine-5-Sulfonamide] | – | 0.605 ± 0.023 µM | 10.2 ± 0.97 µM | – | 6.4 ± 1.24 µM | – | 2.34 ± 0.61 µM | – | 6.1 ± 0.48 µM | – | 65.7 ± 2.28 µM
O=c1[nH]cc(F)c(=O)[nH]1 [Compound 5-FU, 5-fluorouracil, reference compound] | – | – | 3.92 ± 1 µM | – | 4.69 ± 1.13 µM | – | 5.15 ± 1.14 µM | – | 38.4 ± 2.4 µM | – | –
Cc1[nH]c(=S)[nH]c(=O)c1S(=O)(=O)Nc1ccc(Br)cc1 [Compound 6g, N-(4-Bromophenyl)-6-Methyl-4-Oxo-2-Thioxo-1,2,3,4-Tetrahydropyrimidine-5-Sulfonamide] | 333 to 335 °C | 0.485 ± 0.033 µM | 1.62 ± 0.35 µM | 43.58 | 5.05 ± 0.83 µM | 13.98 | 7.31 ± 1.21 µM | 9.65 | 2.47 ± 0.51 µM | – | 70.6 ± 2.14 µM
Cc1[nH]c(=S)[nH]c(=O)c1S(=O)(=O)NNc1ccccc1 [Compound 8b, 6-Methyl-4-Oxo-N′-Phenyl-2-Thioxo-1,2,3,4-Tetrahydropyrimidine-5-Sulfonohydrazide] | – | – | 16.4 ± 1.55 µM | – | 8.16 ± 2.07 µM | – | 9.89 ± 1.8 µM | – | 13.1 ± 2.04 µM | – | –
COc1ccc(NS(=O)(=O)c2c(C)[nH]c(=S)[nH]c2=O)cc1 [Compound 6b, N-(4-Methoxyphenyl)-6-Methyl-4-Oxo-2-Thioxo-1,2,3,4-Tetrahydropyrimidine-5-Sulfon-Amide] | 320 to 322 °C | 0.447 ± 0.031 µM | 2.56 ± 0.45 µM | 28.00 | 5.1 ± 1.32 µM | 14.05 | 2.29 ± 0.63 µM | 31.29 | 2.23 ± 0.55 µM | 32.13 | 71.7 ± 2 µM
CC(=O)c1cccc(NS(=O)(=O)c2c(C)[nH]c(=S)[nH]c2=O)c1 [Compound 6d, N-(3-Acetylphenyl)-6-Methyl-4-Oxo-2-Thioxo-1,2,3,4-Tetrahydropyrimidine-5-Sulfonamide] | 318 to 320 °C | 0.567 ± 0.021 µM | 11.7 ± 1.99 µM | 6.37 | 6.13 ± 0.53 µM | 12.13 | 2.3 ± 0.62 µM | 32.33 | 5.24 ± 1.05 µM | – | 74.4 ± 4.74 µM
Cc1[nH]c(=S)[nH]c(=O)c1S(=O)(=O)Nc1ccccc1 [Compound 6a, 6-Methyl-4-Oxo-N-Phenyl-2-Thioxo-1,2,3,4-Tetrahydropyrimidine-5-Sulfonamide] | 316 to 318 °C | – | 17.7 ± 2.18 µM | – | 11.3 ± 2.08 µM | – | 16.8 ± 2.11 µM | – | 15.6 ± 1.52 µM | – | –
Cc1[nH]c(=S)[nH]c(=O)c1S(=O)(=O)NNc1ccc([N+](=O)[O-])cc1[N+](=O)[O-] [Compound 8c, N′-(2,4-Dinitrophenyl)-6-Methyl-4-Oxo-2-Thioxo-1,2,3,4-Tetrahydropyrimidine-5-Sulfono Hydrazide] | 321 to 323 °C | – | 8.57 ± 1.79 µM | – | 10.1 ± 1.54 µM | – | 5.54 ± 1.58 µM | – | 14.8 ± 1.45 µM | – | –

More lines, main results first:

melting point | IC50 (CDK2/CyclinA2) | Structure (SMILES) | IC50 [1] | SI (selectivity index) A-2780 [1] | IC50 [2] | SI (selectivity index) HT-29 [2] | IC50 [3] | SI (selectivity index) MCF-7 [3] | IC50 [4] | SI (selectivity index) HepG2 [4] | IC50 (WI38 normal cells)
334 to 336 °C | – | Cc1[nH]c(=S)[nH]c(=O)c1S(=O)(=O)NNC(=O)c1ccccc1Cl [Compound 9b, N′-(2-Chlorobenzoyl)-6-Methyl-4-Oxo-2-Thioxo-1,2,3,4-Tetrahydropyrimidine-5-Sulfono-Hydrazide] | 7.95 ± 1.75 µM | – | 10.6 ± 1.25 µM | – | 13.6 ± 2.65 µM | – | 13.3 ± 1.5 µM | – | –
327 to 329 °C | – | Cc1[nH]c(=S)[nH]c(=O)c1S(=O)(=O)NNC(=O)c1ccc(Cl)cc1 [Compound 9a, N′-(4-Chlorobenzoyl)-6-Methyl-4-Oxo-2-Thioxo-1,2,3,4-Tetrahydropyrimidine-5-Sulfono-Hydrazide] | 11.9 ± 3.47 µM | – | 6.64 ± 1.19 µM | – | 10.8 ± 1.53 µM | – | 11 ± 1.23 µM | – | –
339 to 341 °C | – | Cc1[nH]c(=S)[nH]c(=O)c1S(=O)(=O)NNC(=O)c1ccc(Br)cc1 [Compound 9c, N′-(4-Bromobenzoyl)-6-Methyl-4-Oxo-2-Thioxo-1,2,3,4-Tetrahydropyrimidine-5-Sulfono-Hydrazide] | 8.16 ± 2.07 µM | – | 6.99 ± 1.35 µM | – | 11.9 ± 2 µM | – | 9.44 ± 1.03 µM | – | –
343 to 345 °C | – | Cc1[nH]c(=S)[nH]c(=O)c1S(=O)(=O)NNC(N)=S [Compound 8a, [(6-Methyl-4-Oxo-2-Thioxo-1,2,3,4-Tetrahydropyrimidin-5-Yl) Sulfonylamino] Thiourea] | 16.8 ± 1.82 µM | – | 8.02 ± 1.99 µM | – | 13.3 ± 3 µM | – | 18 ± 1.95 µM | – | –
335 to 337 °C | 8.2 ± 0.486 µM | Cc1[nH]c(=S)[nH]c(=O)c1S(=O)(=O)Nc1cccc(C(=O)C=Cc2ccc(Br)cc2)c1 [Compound 7c, N-(3-(3-(4-Bromophenyl)acryloyl)phenyl)-6-Methyl-4-Oxo-2-Thioxo-1,2,3,4-Tetrahydro Pyrimidine-5-Sulfonamide] | 6.1 ± 0.54 µM | 10.28 | 8.14 ± 1.95 µM | 7.71 | 11.7 ± 2.07 µM | 5.38 | 8.25 ± 0.68 µM | 7.60 | 62.7 ± 1.93 µM
318 to 320 °C | 0.81 ± 0.026 µM | Cc1[nH]c(=S)[nH]c(=O)c1S(=O)(=O)Nc1cccc(C(=O)C=Cc2ccc([N+](=O)[O-])cc2)c1 [Compound 7b, 6-Methyl-N-(3-(3-(4-Nitrophenyl)acryloyl)phenyl)-4-Oxo-2-Thioxo-1,2,3,4-Tetrahydropyrimidine-5-Sulfonamide] | 11.1 ± 1.41 µM | 7.22 | 2.84 ± 0.78 µM | 28.14 | 6.11 ± 0.5 µM | 13.08 | 12.4 ± 1.82 µM | 6.43 | 79.9 ± 2.56 µM
315 to 317 °C | 6.41 ± 0.377 µM | Cc1[nH]c(=S)[nH]c(=O)c1S(=O)(=O)Nc1cccc(C(=O)C=Cc2ccc(Cl)cc2)c1 [Compound 7a, N-(3-(3-(4-Chlorophenyl)acryloyl)phenyl)-6-Methyl-4-Oxo-2-Thioxo-1,2,3,4-Tetrahydro Pyrimidine-5-Sulfonamide] | 12.5 ± 2.1 µM | 6.66 | 4.2 ± 0.88 µM | 19.78 | 6.9 ± 1.33 µM | 12.04 | 10.9 ± 1.72 µM | 7.61 | 83.1 ± 2 µM
